Test results: patent US20110190365A1, “Insecticidal 4-phenyl-1H-pyrazoles” (Bayer Crop Science AG, priority 2008, published 2011)

system: not listed separately; experiment: log P by HPLC on a reversed-phase column (C18), EEC Directive 79/831 Annex V.A8; type: physicochemical; conditions: HCOOH
Procedure: The stated log P values were determined in accordance with EEC Directive 79/831 Annex V.A8 by HPLC (High Performance Liquid Chromatography) using a reversed-phase column (C18).

Row | Structure (SMILES) | log P (HCOOH)
1 | Cc1cc(-n2nc(C(F)(F)F)c(-c3ccccc3Cl)c2N)ccc1C(=O)NCc1ncccn1 [I-A-Q2-414] | I-A-Q2-414: log P (HCOOH): 2.72
2 | Cc1cc(-n2nc(C(F)(F)F)c(-c3ccccc3Cl)c2N)ccc1C(=O)NC(C)c1ccccn1 (stereo not drawn) [I-A-Q2-415] | I-A-Q2-415: log P (HCOOH): 2.71
3 | Cc1cc(-n2nc(C(F)(F)F)c(-c3cc(Cl)cc(Cl)c3)c2N)ccc1C(=O)NC(=C(Cl)C#N)C(F)(F)F [I-A-Q2-047] | I-A-Q2-047: log P (HCOOH): 4.94
4 | Cc1cc(-n2nc(C(F)(F)F)c(-c3ccc(Cl)cc3)c2N)ccc1C(=O)NCc1ccccn1 [I-A-Q2-345] | I-A-Q2-345: log P (HCOOH): 2.69
5 | Cc1cc(-n2nc(C(F)(F)F)c(Cl)c2N)ccc1C(=O)NCc1ccccn1 [XI-A-091] | XI-A-091: log P (HCOOH): 1.94
6 | Cc1cc(-n2nc(C(F)(F)F)c(-c3cc(Cl)cc(Cl)c3)c2N)ccc1C(=O)NC1COC1 [I-A-Q2-044] | I-A-Q2-044: log P (HCOOH): 3.42
7 | N#Cc1cc(-n2nc(C(F)(F)F)cc2N)ccc1-n1cncn1 [XI-A-079] | XI-A-079: log P (HCOOH): 2.80
8 | Cc1cc(-n2nc(C(F)(F)F)c(-c3ccc(F)c(Cl)c3)c2N)ccc1C(=O)NCC(F)(F)C(F)F [I-A-Q2-309] | I-A-Q2-309: log P (HCOOH): 3.65
9 | Cc1cc(-n2nc(C(F)(F)Oc3ccc(Cl)cc3)c(-c3cc(Cl)cc(C(F)(F)F)c3)c2N)ccc1C(=O)NCC(F)(F)C(F)F [I-A-Q2-294] | I-A-Q2-294: log P (HCOOH): 4.95
10 | Cc1cc(-n2nc(C)c(-c3ccccc3Cl)c2N)ccc1C(=O)NCC(F)(F)C(F)F [I-A-Q2-333] | I-A-Q2-333: log P (HCOOH): 2.59
11 | Cc1cc(-n2nc(C(F)(F)C(F)(F)F)c(-c3ccc(Cl)cc3)c2N)ccc1C(=O)NCc1ccccn1 [I-A-Q2-363] | I-A-Q2-363: log P (HCOOH): 3.19
12 | Nc1c(-c2ccc(Cl)c(F)c2)c(C(F)(F)F)nn1-c1ccc(C(=O)NCc2ccccn2)cc1 [I-A-Q2-171] | I-A-Q2-171: log P (HCOOH): 2.53
13 | Cc1cc(-n2nc(C(F)(F)F)c(-c3cc(Cl)cc(Cl)c3)c2N)ccc1C(=O)NCc1cccc(Cl)c1 [I-A-Q2-215] | I-A-Q2-215: log P (HCOOH): 4.76
14 | Nc1c(-c2ccc(Cl)c(Cl)c2)c(C(F)(F)F)nn1-c1ccc(C(=O)NCC(F)F)cc1 [I-A-Q2-159] | I-A-Q2-159: log P (HCOOH): 3.65
15 | Nc1c(-c2ccc(F)c(F)c2)c(C(F)(F)F)nn1-c1ccc(C(=O)NCc2ccccn2)cc1 [I-A-Q2-177] | I-A-Q2-177: log P (HCOOH): 2.27
16 | Cc1cc(CNC(=O)c2ccc(-n3nc(C(F)(F)F)c(-c4cc(Cl)cc(Cl)c4)c3N)cc2C)[nH]n1 [I-A-Q2-259] | I-A-Q2-259: log P (HCOOH): 3.33

Row | Structure (SMILES) | log P (HCOOH)
17 | Cc1cc(-n2nc(C(F)(F)F)c(-c3cc(Cl)cc(Cl)c3)c2N)ccc1C(=O)NC(C)c1ccncc1 (stereo not drawn) [I-A-Q2-234] | I-A-Q2-234: log P (HCOOH): 2.38
18 | Cc1cc(-n2nc(C(F)(F)F)c(-c3cc(Cl)cc(Cl)c3)c2N)ccc1C(=O)NC(C)c1nccc2ccccc12 (stereo not drawn) [I-A-Q2-256] | I-A-Q2-256: log P (HCOOH): 4.64
19 | Cc1cc(-n2nc(C(F)(F)F)c(-c3cc(Cl)cc(Cl)c3)c2N)ccc1C(=O)N(C)C(C)c1ccncc1 (stereo not drawn) [I-A-Q2-211] | I-A-Q2-211: log P (HCOOH): 2.89
20 | COC(=O)c1ccc(-n2nc(C(F)(F)F)c(Cl)c2N)cc1C [XI-A-081] | XI-A-081: log P (HCOOH): 2.76
21 | Cc1cc(-n2nc(C(F)F)c(-c3ccc(F)cc3F)c2N)ccc1C(=O)NCc1ccccn1 [I-A-Q2-361] | I-A-Q2-361: log P (HCOOH): 1.91
22 | Cc1cc(-n2nc(C(F)(F)F)c(-c3cc(Cl)cc(Cl)c3)c2N)ccc1C(=O)NCC(F)(F)C(F)F [I-A-Q2-035] | I-A-Q2-035: log P (HCOOH): 4.23
23 | Nc1c(-c2cc(F)cc(Cl)c2)c(C(F)(F)F)nn1-c1ccc(C(=O)NCC(F)(F)F)cc1 [I-A-Q2-086] | I-A-Q2-086: log P (HCOOH): 3.68
24 | CSc1cc(-n2nc(C(C)(C)C)c(-c3cc(Cl)cc(Cl)c3)c2N)ccc1C(=O)NCc1ccccn1 [I-A-Q2-408] | I-A-Q2-408: log P (HCOOH): 3.68
25 | Cc1cc(-n2nc(C(C)C)c(-c3ccc(Cl)cc3)c2N)ccc1C(=O)NCC(F)(F)C(F)F [I-A-Q2-338] | I-A-Q2-338: log P (HCOOH): 3.65
26 | Nc1c(-c2ccc(Br)cc2)c(C(F)(F)F)nn1-c1ccc(C(=O)NC2CC2)cc1 [I-A-Q2-190] | I-A-Q2-190: log P (HCOOH): 3.15
27 | CC(NC(=O)c1ccc(-n2nc(C(F)(F)F)c(-c3cccc(F)c3)c2N)cc1)C(F)(F)F (stereo not drawn) [I-A-Q2-182] | I-A-Q2-182: log P (HCOOH): 3.33
28 | Nc1c(-c2ccc(F)c(F)c2)c(C(F)(F)F)nn1-c1ccc(C(=O)NC2CC2)cc1 [I-A-Q2-176] | I-A-Q2-176: log P (HCOOH): 2.89
29 | Cc1cc(-n2nc(C(F)(F)F)c(-c3cc(Cl)cc(Cl)c3)c2N)ccc1C(=O)NCc1cc(C(F)(F)F)c(Cl)cn1 [I-A-Q2-207] | I-A-Q2-207: log P (HCOOH): 4.83
30 | Nc1c(-c2cc(Cl)cc(Cl)c2)c(C(F)(F)F)nn1-c1ccc(C(=O)NCC(F)(F)F)cc1 [I-A-Q2-138] | I-A-Q2-138: log P (HCOOH): 4.21
31 | Cc1cc(-n2nc(C(F)(F)F)c(-c3cc(Cl)cc(Cl)c3)c2N)ccc1C(=O)NCC[S+](C)[O-] (stereo not drawn) [I-A-Q2-273] | I-A-Q2-273: log P (HCOOH): 2.98

same assay, conditions: HCOOH; Table 4, compounds of formula I-A-Q4

Row | Structure (SMILES) | log P (HCOOH)
32 | Nc1c(-c2ccc(Cl)cc2)c(C(F)(F)F)nn1-c1ccc(Cl)cn1 [I-A-Q4-041] | I-A-Q4-041: log P (HCOOH): 4.95
33 | COc1ccc(-c2c(C)nn(-c3ccc(Cl)cn3)c2N)cc1 [I-A-Q4-061] | I-A-Q4-061: log P (HCOOH): 3.58
34 | FC(F)(F)c1nn(-c2ccc(I)cc2)c(Br)c1-c1cc(Cl)cc(Cl)c1 [I-A-Q4-017] | I-A-Q4-017: log P (HCOOH): 6.71
35 | Nc1c(-c2cc(F)cc(Cl)c2)c(C(F)(F)F)nn1-c1ccc(C(=O)O)cc1 [I-A-Q4-100] | I-A-Q4-100: log P (HCOOH): 3.32
36 | Cc1cc(C)cc(-c2c(C(F)(F)F)nn(-c3ccc(Cl)cn3)c2N)c1 [I-A-Q4-022] | I-A-Q4-022: log P (HCOOH): 5.22
37 | Nc1c(-c2ccc(Cl)cc2)c(C(F)(F)F)nn1-c1ccc(C(=O)O)cc1 [I-A-Q4-088] | I-A-Q4-088: log P (HCOOH): 3.28
38 | Nc1c(-c2cc(F)c(F)c(F)c2)c(C(F)(F)F)nn1-c1ccc(C(=O)O)cc1 [I-A-Q4-099] | I-A-Q4-099: log P (HCOOH): 3.32
39 | Cc1nn(-c2ccc(Cl)cn2)c(N)c1-c1ccc(Cl)cc1 [I-A-Q4-039] | I-A-Q4-039: log P (HCOOH): 4.40

same assay, conditions: HPLC, reversed-phase C18, mobile phase with formic acid

Row | Structure (SMILES) | log P (HCOOH)
40 | N#Cc1cc(-n2nc(C(F)(F)F)c(-c3cc(Cl)cc(Cl)c3)c2N)ccc1-n1cncn1 [I-A-Q1-024] | I-A-Q1-024: log P (HCOOH): 3.90
41 | N#Cc1cc(-n2nc(C(F)(F)F)c(-c3c(F)cc(F)cc3F)c2N)ccc1-n1cncn1 [I-A-Q1-034] | I-A-Q1-034: log P (HCOOH): 3.10

same assay, conditions: HPLC, reversed-phase C18, mobile phase with formic acid; read-out: log P (HCOOH)

Row | Structure (SMILES) | chromatographic logP
42 | Cc1cc(-n2nc(C(F)(F)F)c(-c3cc(Cl)cc(Cl)c3)c2Cl)ccc1C(=O)NC(C)C(F)(F)F (stereo not drawn) [I-A-Q2-022, 4-[5-Chloro-4-(3,5-dichlorophenyl)-3-trifluoromethylpyrazol-1-yl]-2-methyl-N-(2,2,2-trifluoro-1-methylethyl)benzamide] | 5.59
43 | COC(=O)c1ccc(-n2nc(C(F)(F)F)c(-c3cc(Cl)cc(Cl)c3)c2N)cc1C [I-A-Q4-011, Methyl 4-[5-amino-4-(3,5-dichlorophenyl)-3-trifluoromethylpyrazol-1-yl]-2-methylbenzoate] | 5.08
44 | Cc1cc(-n2nc(C(F)(F)F)c(-c3cc(Cl)cc(Cl)c3)c2Br)ccc1C(=O)NC(C)C(F)(F)F (stereo not drawn) [I-A-Q2-024, 4-[5-Bromo-4-(3,5-dichlorophenyl)-3-trifluoromethylpyrazol-1-yl]-2-methyl-N-(2,2,2-trifluoro-1-mmethylethyl)benzamide] | 5.53
45 | N#Cc1cc(-n2nc(C(F)(F)F)c(-c3cc(Cl)cc(C(F)(F)F)c3)c2N)ccc1-n1nc[nH]c1=O [I-A-Q1-002, 5-[5-Amino-4-(3-chloro-5-trifluoromethylphenyl)-3-trifluoromethylpyrazol-1-yl]-2-(5-oxo-4,5-dihydro[1,2,4]triazol-1-yl)benzonitrile] | 3.45
46 | N#Cc1cc(-n2nc(C(F)(F)F)c(-c3cc(Cl)cc(C(F)(F)F)c3)c2N)ccc1F [I-A-Q4-009, 5-[5-Amino-4-(3-chloro-5-trifluoromethylphenyl)-3-trifluoromethylpyrazol-1-yl]-2-fluorobenzonitrile] | 4.54
47 | Nc1c(-c2cc(Cl)cc(Cl)c2)c(C(F)(F)F)nn1-c1ncc(C(=O)NCc2ccccn2)c(C(F)(F)F)n1 [I-A-Q2-020, N-(Pyridin-2-ylmethyl)-2-[5-amino-4-(3,5-dichlorophenyl)-3-trifluoromethylpyrazol-1-yl]-4-trifluoromethylpyrimidine-5-carboxamide] | 3.54
48 | N#Cc1cc(N)ccc1-n1cncn1 [5-Amino-2-[1,2,4]triazol-1-ylbenzonitrile] | 1.01
49 | Cc1cc(-n2nc(C(F)(F)F)c(-c3cc(Cl)cc(Cl)c3)c2N)ccc1C(=O)O [I-A-Q4-010, 4-[5-Amino-4-(3,5-dichlorophenyl)-3-trifluoromethylpyrazol-1-yl]-2-methylbenzoic acid] | 4.04

system: larvae of the mustard beetle (Phaedon cochleariae); experiment: Phaedon cochleariae test (PHAECO spray treatment); type: in vivo; conditions: Phaedon cochleariae, foliar, 168 h; application rate 500 g/ha, Chinese cabbage leaf discs sprayed, after 7 days; read-out: effect in % (beetle larvae killed)
Procedure: Phaedon cochleariae Test (PHAECO Spray Treatment)
Solvent: 78.0 parts by weight of acetone • • 1.5 parts by weight of dimethylformamide Emulsifier: 0.5 part by weight of alkylaryl polyglycol ether
To produce a suitable preparation of active compound, 1 part by weight of active compound is mixed with the stated amounts of solvent and emulsifier, and the concentrate is diluted with emulsifier-containing water to the desired concentration.
Discs of Chinese cabbage (Brassica pekinensis) are sprayed with an active compound preparation of the desired concentration and, after drying, populated with larvae of the mustard beetle (Phaedon cochleariae).
After 7 days, the effect in % is determined. 100% means that all beetle larvae have been killed; 0% means that none of the beetle larvae have been killed.

Row | Structure (SMILES) | pest or weed control at 500 g/ha
50 | Cc1cc(-n2nc(C(F)(F)F)c(-c3cc(Cl)cc(Cl)c3)c2Cl)ccc1C(=O)NC(C)C(F)(F)F (stereo not drawn) [I-A-Q2-022, 4-[5-Chloro-4-(3,5-dichlorophenyl)-3-trifluoromethylpyrazol-1-yl]-2-methyl-N-(2,2,2-trifluoro-1-methylethyl)benzamide] | > 80%
51 | COC(=O)c1ccc(-n2nc(C(F)(F)F)c(-c3cc(Cl)cc(Cl)c3)c2N)cc1C [I-A-Q4-011, Methyl 4-[5-amino-4-(3,5-dichlorophenyl)-3-trifluoromethylpyrazol-1-yl]-2-methylbenzoate] | > 80%
52 | Cc1cc(-n2nc(C(F)(F)F)c(-c3cc(Cl)cc(Cl)c3)c2Br)ccc1C(=O)NC(C)C(F)(F)F (stereo not drawn) [I-A-Q2-024, 4-[5-Bromo-4-(3,5-dichlorophenyl)-3-trifluoromethylpyrazol-1-yl]-2-methyl-N-(2,2,2-trifluoro-1-mmethylethyl)benzamide] | > 80%
53 | N#Cc1cc(-n2nc(C(F)(F)F)c(-c3cc(Cl)cc(C(F)(F)F)c3)c2N)ccc1-n1nc[nH]c1=O [I-A-Q1-002, 5-[5-Amino-4-(3-chloro-5-trifluoromethylphenyl)-3-trifluoromethylpyrazol-1-yl]-2-(5-oxo-4,5-dihydro[1,2,4]triazol-1-yl)benzonitrile] | > 80%
54 | N#Cc1cc(-n2nc(C(F)(F)F)c(-c3cc(Cl)cc(C(F)(F)F)c3)c2N)ccc1F [I-A-Q4-009, 5-[5-Amino-4-(3-chloro-5-trifluoromethylphenyl)-3-trifluoromethylpyrazol-1-yl]-2-fluorobenzonitrile] | > 80%
55 | Nc1c(-c2cc(Cl)cc(Cl)c2)c(C(F)(F)F)nn1-c1ncc(C(=O)NCc2ccccn2)c(C(F)(F)F)n1 [I-A-Q2-020, N-(Pyridin-2-ylmethyl)-2-[5-amino-4-(3,5-dichlorophenyl)-3-trifluoromethylpyrazol-1-yl]-4-trifluoromethylpyrimidine-5-carboxamide] | > 80%

same assay, conditions: application rate 500 g/ha, Chinese cabbage leaf discs sprayed, after 7 days

Row | Structure (SMILES) | effect in % (beetle larvae killed)
56 | Cc1cc(-n2nc(C(F)(F)F)c(-c3ccccc3Cl)c2N)ccc1C(=O)NCc1ncccn1 [I-A-Q2-414] | 100%
57 | Cc1cc(-n2nc(C(F)(F)F)c(-c3ccccc3Cl)c2N)ccc1C(=O)NC(C)c1ccccn1 (stereo not drawn) [I-A-Q2-415] | 100%
